From BindingDB's records for doi:10.1016/j.bmcl.2010.04.142 (Glaxosmithkline, 2010)
pKi: −log10 of the molar value.

Experiments:
[1] = Antagonist activity at CCR2 in human THP1 cells assessed as inhibition of CCL2-induced chemotaxis in presence of 1% human serum
[2] = Antagonist activity at CCR2 in human THP1 cells assessed as inhibition of CCL2-induced chemotaxis in presence of 1% fetal bovine serum

| Structure (SMILES) | pKi [1] | pKi [2] |
| --- | --- | --- |
| O=C(O)c1ccccc1Oc1c(F)cc(C(F)(F)F)cc1NS(=O)(=O)c1ccc(Cl)cc1 | 4.90 | 7.20 |
| O=C(O)c1ccccc1Oc1ccccc1NS(=O)(=O)c1ccc(Cl)cc1 | 6.40 | 6.40 |
| O=C(O)c1c(F)cccc1Oc1ccc(C(F)(F)F)cc1NS(=O)(=O)c1ccc(Cl)cc1 | 5.00 | 6.80 |
